Like-named read-outs stand apart in the source and are kept apart here.
How the values were obtained:
[1] = system: Aspergillus flavus; assay: Minimum inhibitory concentration and synergism (Kull synergy index) of OPP/TBZ; type: cell-based; conditions: read-out: Amount of pure active substances which suppress growth (QA, QB; minimum inhibitory concentration)
From the text: For improving the overall performance of an antimicrobial treatment, the use of active substance mixtures is customary for compensating, for example, for gaps in the activity of one component or for optimizing the costs of preservation.
The synergism found for the mixture according to the invention can be determined via the following mathematical formula (cf. F. C. Kull, P. C. Elisman, H. D. Sylwestrowicz and P. K. Mayer, Appl. Microbiol. 9, 538 (1961):
Qa=amount of component A in the active substance mixture which achieves the desired effect, i.e. no microbial growth,
QA=amount of component A which, when used alone, suppresses the growth of the micro-organisms,
Qb=amount of component B in the active substance mixture which suppresses the growth of the micro-organisms,
QB=amount of component B which, when used alone, suppresses the growth of the micro-organisms.
Synergism of o-phenylphenol (OPP)/thiabendazole (TBZ)
Using the test micro-organism, Aspergillus flavus, the minimum inhibitory concentration of the active substance combinations listed in Table 2 were investigated.

[2] = system: mixture of moulds: Penicillium glaucum, Chaetomium globosum, Aspergillus niger, Aureobasidium pullulans; assay: Microbiological resistance of plasterboard treated with OPP in the gypsum core after inoculation with a fungal mixture, humid environment
From the text: For checking the effectiveness of a plasterboard treated with OPP in the gypsum core, the resistance was investigated in the laboratory after inoculation with a fungal mixture. For this purpose, sandwich-type plasterboard samples having the dimensions 14×5 cm are transferred to a 1 litre powder bottle and suspended by the bottle cap. At the start of the experiment, the test specimens thus prepared are immersed once in a mixture of the following moulds to simulate a strong fungal attack:
The mould species are material pests well known to the person skilled in the art and are therefore suitable for a qualifying conclusion about the degree of antimicrobial protection of a product treated with an OPP or the sodium or potassium salt thereof and optionally further active components. The sample boards are stored at room temperature over a period of up to 8 weeks, a water vapour-saturated atmosphere being continuously ensured by maintaining the initial amount of water at the bottom of the vessel (direct contact between plasterboard and water is not permitted). The assessment of the test specimens is effected at certain times and is carried out according to the following rating scheme:
0=no growth on the surface
1=slight growth (<10% of the surface infested)
2=moderate growth (<50% of the surface infested)
3=strong growth on the surface
Microbiological resistance of a plasterboard contaminated once in a humid environment

SMILES | MIC [1] [µg/mL] | Rating (mould growth on plasterboard surface) ([2]; 300 ppm OPP in the gypsum core, 1 week, water vapour-saturated atmosphere, room temperature) | Rating (mould growth on plasterboard surface) ([2]; 300 ppm OPP in the gypsum core, 3 weeks) | Rating (mould growth on plasterboard surface) ([2]; 300 ppm OPP in the gypsum core, 4 weeks) | Rating (mould growth on plasterboard surface) ([2]; 300 ppm OPP in the gypsum core, 8 weeks) | Rating (mould growth on plasterboard surface) ([2]; 500 ppm OPP in the gypsum core, 1 week) | Rating (mould growth on plasterboard surface) ([2]; 500 ppm OPP in the gypsum core, 3 weeks) | Rating (mould growth on plasterboard surface) ([2]; 500 ppm OPP in the gypsum core, 4 weeks) | Rating (mould growth on plasterboard surface) ([2]; 500 ppm OPP in the gypsum core, 8 weeks) | Rating (mould growth on plasterboard surface) ([2]; 750 ppm OPP in the gypsum core, 1 week) | Rating (mould growth on plasterboard surface) ([2]; 750 ppm OPP in the gypsum core, 3 weeks) | Rating (mould growth on plasterboard surface) ([2]; 750 ppm OPP in the gypsum core, 4 weeks) | Rating (mould growth on plasterboard surface) ([2]; 750 ppm OPP in the gypsum core, 8 weeks) | Concentration of use from which good effectiveness was found ([2]; based on the weight of the gypsum core) [ppm] | MIC ([1]; substance used alone) [µg/mL]
Oc1ccccc1-c1ccccc1 [OPP, o-phenylphenol] | 100 | 0/0 | 0/0 | 0/0 | 0/0 | 0/0 | 0/0 | 0/0 | 0/0 | 0/0 | 0/0 | 0/0 | 0/0 | ≥ 300 | 
c1ccc2[nH]c(-c3cscn3)nc2c1 [TBZ, thiabendazole, reference compound] |  |  |  |  |  |  |  |  |  |  |  |  |  |  | 500

From US20080134931A1, “Plasterboards Provided With Antimicrobial Effect” (priority 2005, published 2008)
